Measurements published in ChEMBL document CHEMBL1122514, “Studies on synthesis and anticancer activity of selected N-(2-fluoroethyl)-N-nitrosoureas” (1984).
Where “and” joins values, the source holds several entries; their conditions need not be identical. Identical values can stand only once.

Tests used:
Mus musculus [1] = species on record: Mus musculus; assay: optimal percentage of increased life span [(100 x MST treated mice / MST control mice) -100]; format: functional
Mus musculus [2] = assay: Compound is evaluated for maximally tolerated dose (MTD) against intraperitoneally implanted B16 melanoma cells in mice; format: functional
Mus musculus [3] = assay: Optimal percentage of increased life span [(100 x MST treated mice / MST control mice) -100] at the optimal dose of 10 mg/kg; d=Not Attained; format: functional, organism-based; design: dose 10 mg/kg
Mus musculus [4] = species on record: Mus musculus; assay: Optimal percentage of increased life span [(100 x MST treated mice / MST control mice) -100]; f=Not Attained; format: functional, organism-based
Mus musculus [5] = assay: Compound is evaluated for antitumor activity against intraperitoneally implanted B16 melanoma cells in mice median survival time including day-60 survivors (MST); f=Not attained; format: functional, organism-based
Mus musculus [6] = assay: Compound is evaluated for antitumor activity against intraperitoneally implanted B16 melanoma cells in mice median survival time including day-60 survivors (MST); format: functional
Mus musculus [7] = assay: Median survival time including day-60 survivors (MST), after post implantation at the optimal dose of 10 mg/kg; d=Not attained; format: functional, organism-based; design: dose 10 mg/kg
Mus musculus [8] = species on record: Mus musculus; assay: Number of day-60 survivors; 4/10; format: functional
Mus musculus [9] = species on record: Mus musculus; assay: Number of day-60 survivors; 5/10; format: functional
Mus musculus [10] = assay: Number of day-60 survivors at the optimal dose of 10 mg/kg; 7/10; format: functional
Mus musculus [11] = assay: Number of day-60 survivors at the optimal dose of 6.25 mg/kg; 9/10; format: functional
Mus musculus [12] = assay: Optimal percentage of increased life span [(100 x MST treated mice / MST control mice) -100] at the optimal dose of 6.25 mg/kg; d=Not Attained; format: functional, organism-based; design: dose 6.25 mg/kg
Mus musculus [13] = assay: Median survival time including day-60 survivors (MST), after post implantation at the optimal dose of 6.25 mg/kg; d=Not attained; format: functional, organism-based; design: dose 6.25 mg/kg
Mus musculus [14] = assay: median survival time including day-60 survivors (MST), after post implantation at the optimal dose of 32 mg/kg; format: functional
Mus musculus [15] = assay: Optimal percentage of increased life span [(100 x MST treated mice / MST control mice) -100] at the optimal dose of 32 mg/kg; format: functional
Mus musculus [16] = assay: Number of day-60 survivors at the optimal dose of 32 mg/kg; 1/10; format: functional
Mus musculus [17] = assay: median survival time including day-60 survivors (MST), after post implantation at the optimal dose of 20 mg/kg; format: functional
Mus musculus [18] = species on record: Mus musculus; assay: (§1) Optimal percentage of increased life span [(100 x MST treated mice / MST control mice) -100]; format: functional
Mus musculus [19] = assay: Optimal percentage of increased life span [(100 x MST treated mice / MST control mice) -100] at the optimal dose of 20 mg/kg; format: functional
Mus musculus [20] = species on record: Mus musculus; assay: Number of day-60 survivors; 1/10; format: functional
Mus musculus [21] = assay: Number of day-60 survivors at the optimal dose of 20 mg/kg; 3/10; format: functional
Mus musculus [22] = assay: median survival time including day-60 survivors (MST), after post implantation at the optimal dose of 5 mg/kg; format: functional
Mus musculus [23] = assay: Number of day-60 survivors at the optimal dose of 5 mg/kg; 3/10; format: functional
Mus musculus [24] = assay: Optimal percentage of increased life span [(100 x MST treated mice / MST control mice) -100] at the optimal dose of 5 mg/kg; format: functional
Mus musculus [25] = assay: Median survival time including day-60 survivors (MST), after post implantation at the optimal dose of 5 mg/kg; format: functional
Mus musculus [26] = species on record: Mus musculus; assay: Number of day-60 survivors; 3/10; format: functional
Mus musculus [27] = species on record: Mus musculus; assay: Number of day-60 survivors; 2/10; format: functional
Mus musculus [28] = species on record: Mus musculus; assay: as §1; format: functional; remark: listed apart in the source
Mus musculus [29] = assay: Optimal percentage of increased life span [(100 x MST treated mice / MST control mice) -100] at the optimal dose of 20 mg/kg; d=Not Attained; format: functional, organism-based; design: dose 20 mg/kg
Mus musculus [30] = assay: Median survival time including day-60 survivors (MST), after post implantation at the optimal dose of 20 mg/kg; d=Not attained; format: functional, organism-based; design: dose 20 mg/kg
Mus musculus [31] = species on record: Mus musculus; assay: Number of day-60 survivors; 0/10; format: functional
Mus musculus [32] = assay: Number of day-60 survivors at the optimal dose of 20 mg/kg; 6/10; format: functional
Mus musculus [33] = assay: median survival time including day-60 survivors (MST), after post implantation at the optimal dose of 8 mg/kg; d=Not Attained; format: functional, organism-based; design: dose 8 mg/kg
Mus musculus [34] = assay: Number of day-60 survivors at the optimal dose of 8 mg/kg; 8/10; format: functional
Mus musculus [35] = assay: Optimal percentage of increased life span [(100 x MST treated mice / MST control mice) -100] at the optimal dose of 8 mg/kg; d=Not Attained; format: functional, organism-based; design: dose 8 mg/kg
Mus musculus [36] = assay: Number of day-60 survivors at the optimal dose of 20 mg/kg; 9/10; format: functional

O=NN(CCF)C(=O)NC1C(O)CCCC1O (centres undefined)
ILS (Mus musculus [1]): 163%
MTD (Mus musculus [2]): 60 mg/kg
ILS (Mus musculus [3]): Not attained
ILS (Mus musculus [4]): Not attained
MST (Mus musculus [5]): Not attained
MST (Mus musculus [6]): 57 days
MST (Mus musculus [7]): Not attained
Survivors (Mus musculus [8]): 4
Survivors (Mus musculus [9]): 5
Survivors (Mus musculus [10]): 7

O=NN(CCCl)C(=O)NCCO [ELMUSTINE]
Survivors (Mus musculus [11]): 9
ILS (Mus musculus [12]): Not attained
MST (Mus musculus [13]): Not attained

O=NN(CCCl)C(=O)NC1CCCCC1 [LOMUSTINE]
MST (Mus musculus [14]): 32 days
ILS at 32 mg/kg (Mus musculus [15]): 66%
Survivors (Mus musculus [16]): 1

O=NN(CCF)C(=O)NC1CCCCC1
MST (Mus musculus [17]): 44 days
MTD (Mus musculus [2]): 60 mg/kg
ILS (Mus musculus [18]): 71%
ILS at 20 mg/kg (Mus musculus [19]): 129%
MST (Mus musculus [6]): 37 days
Survivors (Mus musculus [20]): 1
Survivors (Mus musculus [21]): 3

O=NN(CCCl)C(=O)NC1C(O)CCCC1O (centres undefined)
MST (Mus musculus [22]): 33.3 days
Survivors (Mus musculus [23]): 3
ILS at 5 mg/kg (Mus musculus [24]): 73%

O=NN(CCF)C(=O)NCCO
ILS (Mus musculus [1]): 131%
MTD (Mus musculus [2]): 60 mg/kg
Survivors (Mus musculus [23]): 3
ILS (Mus musculus [18]): 150%
ILS at 5 mg/kg (Mus musculus [24]): 138%
MST (Mus musculus [6]): 50 days and 42.8 days
MST (Mus musculus [25]): 45.8 days
Survivors (Mus musculus [26]): 3

O=NN(CCF)C(=O)NC1C(O)C(O)OC(CO)C1O (centres undefined)
MTD (Mus musculus [2]): 60 mg/kg
ILS (Mus musculus [18]): 110%
MST (Mus musculus [6]): 50 days and 36 days
Survivors (Mus musculus [27]): 2
Survivors (Mus musculus [26]): 3
ILS (Mus musculus [28]): 131%

O=NN(CCF)C(=O)NC1CCCCC1O (centres undefined)
MTD (Mus musculus [2]): 60 mg/kg
ILS (Mus musculus [18]): 122% and 109%
ILS (Mus musculus [29]): Not attained
MST (Mus musculus [6]): 48 days and 35.8 days
MST (Mus musculus [30]): Not attained
Survivors (Mus musculus [31]): 0
Survivors (Mus musculus [26]): 3
Survivors (Mus musculus [32]): 6

O=NN(CCCl)C(=O)NC1CCC(=O)NC1=O (centres undefined)
MST (Mus musculus [33]): Not attained
Survivors (Mus musculus [34]): 8
ILS (Mus musculus [35]): Not attained

O=NN(CCF)C(=O)NC1CCC(=O)NC1=O (centres undefined)
MTD (Mus musculus [2]): 60 mg/kg
ILS (Mus musculus [18]): 109% and 133%
ILS (Mus musculus [29]): Not attained
MST (Mus musculus [6]): 45.3 days and 40.3 days
MST (Mus musculus [30]): Not attained
Survivors (Mus musculus [20]): 1
Survivors (Mus musculus [26]): 3
Survivors (Mus musculus [36]): 9
